# Experimental data: patent publication US6180803A, “19-nor-pregnene derivatives and pharmaceuticals containing such derivatives” (priority 1996, dated 2001)
# Tests used:
# [1] = system: human T47-D cell progesterone receptor; assay: Relative binding affinity to human T47-D cell progesterone receptor ([3H]-ORG 2058 displacement); conditions: for IC50: mean ± s.e.m., 2 nM [3H]-ORG 2058, 3 hours at 4° C., T47-D cell PR, read-out: ED50 (concentration inhibiting 50% of the specific binding of [3H]-ORG 2058); for RBA (relative binding affinity): relative to nomegestrol acetate = 100%
# Description: (§1) The progestational activity of the compounds according to the present invention can be assessed mainly in two specific experimental models the affinity for the progesterone receptor (PR) in vitro, and the endometrial tranformation of the rabbit uterus in vivo. Human PRs are readily available in high amounts from the T47-D cell line in culture (M. B. Mockus et al., Endocrinology, 1982, 110, 1564-1571). Relative binding affinities (RBA) for the human T47-D cell PR are determined as previously described (J. Botella et al., J. Steroid Biochem. Molec. Biol., 1994, 50, 41-47) using [^3 H]-ORG 2058 as a labelled specific ligand (G. Fleischmann and M. Beato, Biochim. Biophys. Acta, 1978, 540, 500-517) and nomegestrol acetate as a non-radioactive reference progestin. Competitive incubations were performed against 2 nM of [^3 H]-ORG 2058 for 3 hours at 4° C. with […] of non-labelled steroid, chosen between 4 and 256 nM following a 1/2^n dilution scheme. Displacement curves were fitted for each experiment, and the concentration inhibiting 50% of the specific binding of [^3 H]-ORG 2058 was calculated for each curve (IC50).
# [2] = system: uterus of estrogen-primed immature female rabbits (endometrial transformation); assay: Clauberg-McPhail test by oral administration (gavage), endometrial transformation of the rabbit uterus; format: in vivo; conditions: for ED50 (dose for mean McPhail grade equal to 2): mean ± s.e.m., total dose/rabbit/5 days; for Relative activity: relative to nomegestrol acetate = 100%
# Description: as §1
# One specific pharmacological test has been standardized in vivo for the detection and quantitation of pseudogestagenic activity since the mid-30's: it is based on the property of the uterus of estrogen-primed immature female rabbits to respond to very slight amounts of progestin by a typical endometrial transformation into a densely packed and interlaced epithelial network called "dentelle". The original test schedule, which includes 6 days of estrogen priming (total subcutaneous dose of 30 μg/rabbit of oestradiol benzoate) followed by 5 days of progestational treatment, was designed as early as 1930 by C. Clauberg, Zentr. Gynakol. 1930, 54, 2757-2770. The semi-quantitative scale used to grade the intensity of the microscopical appearance of the dentelle was set up by M. K. McPhail, J. Physiol (London), 1934, 83, 145-156. This overall Clauberg-McPhail procedure has been extensively used to screen steroids for putative progestational activity in vivo and is still part of the basic hormonal profile of any new progestin such as norgestimate (A Phillips et al., Contraception, 1987, 36, 181-192), or desogestrel (J. Van der Vies and J. De Visser, Arzneim. Forsch/Drug Res., 1983, 33, 231-236). The progestational potency is inversely related to the dose needed to induce a half-maximal stimulation of the dentelle, i.e. to record a mean McPhail grade equal to 2. This ED50 is deduced from the dose-responsecurve and expressed in total dose/rabbit/5 days. All compounds were tested only following oral administration by gavage, in suspension in a carboxy-methylcellulose solution.
# [3] = system: ventral prostate and seminal vesicle of immature castrated male rats; assay: Residual androgenic activity in the immature castrated male rat model; format: in vivo; conditions: for Ventral Prostate weight / Seminal Vesicle weight: 10 daily administrations; for effect on the growth of male accessory sex organs (residual androgenic activity): in words, gavage (PO), Tables 3 and 4
# Description: The residual androgenic potential is an important feature to be evaluated for any new progestin, because it is highly predictive of androgenic side-effects in women. One pharmacological model of androgenic activity has been standardized to screen steroids or related compounds in immature castrated male rats, using the hypertrophy of the vental prostate and of the seminal vesicle as the endpoint, following 10 daily administrations (R. I. Dorfman, in Methods in Hormone Research, volume 2, London, Academic Press, 1962: 275-313; A. G. Hilgar and D. J. Hummel, Androgenic and Myogenic Endocrine Bioassay Data, U.S. Department of Health, Education and Welfare, Washington D.C., 1964).
# [4] = system: ventral prostate and seminal vesicle of immature castrated male rats; conditions: well-known from the literature (Tausk and de Visser); cited from earlier work
# [5] = system: uterus of estrogen-primed immature female rabbits (endometrial transformation); conditions: in words, known from the literature; cited from earlier work
# [6] = Table 3, PO, 20 mg/animal/day, mean ± s.e.m. of 8 animals, castrated controls 12.0 ± 0.9, medroxyprogesterone acetate p <0.001, Example 1 ns
# [7] = Table 3, PO, 20 mg/animal/day, mean ± s.e.m. of 8 animals, castrated controls 12.3 ± 0.7, medroxyprogesterone acetate p <0.01, Example 1 ns
# [8] = Table 4, PO, 20 mg/animal/day, mean ± s.e.m. of 7 or 8 animals, castrated controls 10.4 ± 0.6, both ns
# [9] = Table 4, PO, 20 mg/animal/day, mean ± s.e.m. of 7 or 8 animals, castrated controls 11.8 ± 0.6, cyproterone acetate p <0.05, Example 4 ns
SMILES,IC50 [1] [nM],RBA (relative binding affinity) [1] [%],ED50 (dose for mean McPhail grade equal to 2) [2] [μg/rabbit 5 days],Relative activity [2] [%],effect on the growth of male accessory sex organs (residual androgenic activity) [3],also measured
"CC(=O)O[C@]1(C(C)=O)CC[C@H]2[C@@H]3C[C@H](C)C4=CC(=O)[C@H]5C[C@H]5[C@@H]4[C@H]3CC[C@@]21C [Example 5, 17α-acetoxy-1β,2β-methylene-6α-methyl-3,20-dioxo-19-nor-pregna-4-ene]",17.7 ± 2.4,50,> 750 ± 6.0,> 17,,
CC(=O)O[C@]1(C(C)=O)CC[C@H]2[C@@H]3C[C@H](C)C4=CC(=O)CC[C@]4(C)[C@H]3CC[C@@]21C [Medroxyprogesterone acetate],,,,,caused both organs to more or less double in weight,"Ventral Prostate weight [3, 6]: 29.1 ± 1.4 mg; Seminal Vesicle weight [3, 7]: 19.9 ± 1.8 mg; androgenic properties [4]: weak androgenic properties"
CC(=O)O[C@]1(C(C)=O)CC[C@H]2[C@@H]3C=C(Cl)C4=CC(=O)[C@@H]5C[C@@H]5[C@]4(C)[C@H]3CC[C@@]21C [Cyproterone acetate],,,,,"very weak and limited to the ventral prostate, at the border of statistical significance","Seminal Vesicle weight [3, 8]: 11.3 ± 0.6 mg; Ventral Prostate weight [3, 9]: 15.3 ± 1.3 mg; progestational activity [5]: potent progestational activity"
"CC(=O)O[C@]1(C(C)=O)CC[C@H]2[C@@H]3CC(C)(C)C4=CC(=O)CC[C@@H]4[C@H]3CC[C@@]21C [Example 1, 17α-acetoxy-6,6-dimethyl-3,20-dioxo-19-nor-pregna-4-ene]",27.8 ± 2,32,152 ± 28,112,totally inactive,"Ventral Prostate weight [3, 6]: 13.0 ± 0.3 mg; Seminal Vesicle weight [3, 7]: 10.4 ± 0.5 mg"
"CC(=O)O[C@]1(C(C)=O)CC[C@H]2[C@@H]3C=C(C)C4=CC(=O)CC[C@@H]4[C@H]3CC[C@@]21C [Nomegestrol acetate, reference compound]",8.9 ± 2,100,170 ± 41,100,,progestational activity [5]: potent orally active
C[C@]12CC[C@H]3[C@@H](CCC4=CC(=O)CC[C@@]43C)[C@@H]1CC[C@@H]2O [Testosterone],,,,,,"Ventral Prostate weight ([3]; Table 3, SC, 0.05 mg/animal/day, mean ± s.e.m. of 8 animals, castrated controls 12.0 ± 0.9, *** p <0.001): 90.4 ± 4.4 mg; Seminal Vesicle weight ([3]; Table 3, SC, 0.05 mg/animal/day, mean ± s.e.m. of 8 animals, castrated controls 12.3 ± 0.7, *** p <0.001): 90.3 ± 6.7 mg; Seminal Vesicle weight ([3]; Table 4, SC, 0.05 mg/animal/day, mean ± s.e.m. of 7 or 8 animals, castrated controls 10.4 ± 0.6, *** p <0.001): 79.0 ± 5.3 mg; Ventral Prostate weight ([3]; Table 4, SC, 0.05 mg/animal/day, mean ± s.e.m. of 7 or 8 animals, castrated controls 11.8 ± 0.6, *** p <0.001): 80.9 ± 3.4 mg"
"CC(=O)O[C@]1(C(C)=O)CC[C@H]2[C@@H]3C[C@H](C)C4=CC(=O)[C@@H]5C[C@@H]5[C@@H]4[C@H]3CC[C@@]21C [Example 4, 17α-acetoxy-1α,2α-methylene-6α-methyl-3,20-dioxo-19-nor-pregna-4-ene]",22.8 ± 1.7,39,66 ± 11,258,totally inactive,"Seminal Vesicle weight [3, 8]: 11.2 ± 0.5 mg; Ventral Prostate weight [3, 9]: 12.1 ± 0.4 mg"
